Source: ChEMBL document CHEMBL1240505, “Studies on preparation and photodynamic mechanism of chlorin P6-13,15-N-(cyclohexyl)cycloimide (Chlorin-H) and its antitumor effect for photodynamic therapy in vitro and in vivo” (Bioorg Med Chem, 2010)
Activity calls are given as the source filed them. The rule behind the calls is not given here.

Columns and labels:
A549 [1] = experiment: Antitumor activity against human A549 cells xenografted in nude BALB/C mouse assessed as reduction of tumor growth at 8 uM after 20 days; type: functional, cell-based
A549 [2] = experiment: Induction of apoptosis in human A549 cells assessed as live mitochondrial membrane depolarized cells at 4 uM after 24 hrs using JC-1 staining by flow cytometry; type: functional
A549 [3] = experiment: Induction of apoptosis in human A549 cells assessed as viable cells at 4 uM after 24 hrs followed by irradiated with light dose 0.18 J/cm2 using annexin-V-PE/7-AAD double staining by flow cytometry; type: functional; details: A549, light or radiation study, read-out: Activity
A549 [4] = experiment: Antitumor activity against human A549 cells xenografted in nude BALB/C mouse assessed as dry tumor at 8 uM after 24 hrs followed by irradiated with light dose 78 J/cm2 measured after 10 days; type: functional, cell-based
SW480 = experiment: Cytotoxicity against human SW480 cells assessed as cell death at 4 uM after 24 hrs followed by irradiated with light dose 0.18 J/cm2 by MTT assay; type: functional, cell-based
A549 [5] = experiment: Cell cycle arrest in human A549 cells assessed as accumulation at G0/G1 phase at 4 uM after 24 hrs by flow cytometry; type: functional
A549 [6] = experiment: Antitumor activity against human A549 cells xenografted in nude BALB/C mouse assessed as hardened tumor at 8 uM after 24 hrs followed by irradiated with light dose 78 J/cm2 measured after 10 days; type: functional, cell-based
A549 [7] = experiment: Antiproliferative activity against human A549 cells assessed as reduction of colony formation at 4 uM irradiated with light dose 0.18 J/cm2 for 14 days before compound challenge measured after 24 hrs using giemsa staining by microscopic analysis; type: functional, cell-based
A549 [8] = experiment: Induction of apoptosis in human A549 cells assessed as down regulation of […] mRNA expression at 2 uM after 24 hrs followed by irradiated with light dose 0.18 J/cm2 by RT-PCR analysis; type: functional, cell-based
A549 [9] = experiment: Induction of apoptosis in human A549 cells assessed as down regulation of […] mRNA expression at 4 uM after 24 hrs followed by irradiated with light dose 0.18 J/cm2 by RT-PCR analysis; type: functional, cell-based
A549 [10] = experiment: Induction of apoptosis in human A549 cells transfected with lentivirus Smac-siRNA assessed as cell survival at 4 uM after 24 hrs followed by irradiated with light dose 0.18 J/cm2 by MTT assay; type: functional; details: A549, light or radiation study, read-out: Activity
A549 [11] = experiment: Induction of apoptosis in human A549 cells assessed as upregulation of XIAP mRNA expression at 4 uM after 24 hrs followed by irradiated with light dose 0.18 J/cm2 by RT-PCR analysis; type: functional, cell-based
A549 [12] = experiment: Induction of apoptosis in human A549 cells assessed as late apoptotic cells at 4 uM after 24 hrs followed by irradiated with light dose 0.18 J/cm2 using annexin-V-PE/7-AAD double staining by flow cytometry; type: functional
A549 [13] = experiment: Induction of apoptosis in human A549 cells assessed as late apoptotic cells at 4 uM after 24 hrs using annexin-V FITC/PI double staining by flow cytometry; type: functional
A549 [14] = experiment: Induction of apoptosis in human A549 cells assessed as pre-necrotic cells at 4 uM after 24 hrs using annexin-V-PE/7-AAD double staining by flow cytometry; type: functional
A549 [15] = experiment: Induction of apoptosis in human A549 cells transfected with lentivirus TNFSF13-siRNA assessed as cell survival at 4 uM after 24 hrs followed by irradiated with light dose 0.18 J/cm2 by MTT assay; type: functional; details: A549, light or radiation study, read-out: Activity
A549 [16] = experiment: Cell cycle arrest in human A549 cells assessed as accumulation at S phase at 4 uM after 24 hrs by flow cytometry; type: functional
A549 [17] = experiment: Induction of apoptosis in human A549 cells assessed as live mitochondrial membrane depolarized cells at 4 uM after 24 hrs followed by irradiated with light dose 0.18 J/cm2 using JC-1 staining by flow cytometry; type: functional
[18] = Drug uptake in human U87 cell mitochondria by using Hoechst 33258 staining; type: ADME; details: u-87mg atcc
A549 [19] = experiment: Induction of apoptosis in human A549 cells transfected with lentivirus GFP assessed as cell survival at 4 uM after 24 hrs followed by irradiated with light dose 0.18 J/cm2 by MTT assay; type: functional; details: A549, light or radiation study, read-out: Activity
[20] = Drug uptake in human U87 cell nucleus by using Hoechst 33258 staining; type: ADME, cell-based; details: u-87mg atcc
A549 [21] = experiment: Induction of apoptosis in human A549 cells assessed as upregulation of Smac mRNA expression at 4 uM after 24 hrs followed by irradiated with light dose 0.18 J/cm2 by RT-PCR analysis; type: functional, cell-based
A549 [22] = experiment: Induction of apoptosis in human A549 cells assessed as upregulation of Bcl2 mRNA expression at 4 uM after 24 hrs followed by irradiated with light dose 0.18 J/cm2 by RT-PCR analysis; type: functional, cell-based
HL-60 [23] = experiment: Cytotoxicity against human HL60 cells assessed as cell survival at 4 uM after 24 hrs followed by irradiated with light dose 0.18 J/cm2 by MTT assay; type: functional; details: HL-60, light or radiation study, read-out: Activity
HL-60 [24] = experiment: Cytotoxicity against human HL60 cells assessed as cell death at 4 uM after 24 hrs followed by irradiated with light dose 0.18 J/cm2 by MTT assay; type: functional, cell-based
A549 [25] = experiment: Induction of apoptosis in human A549 cells assessed as pre-necrotic cells at 4 uM after 24 hrs using annexin-V FITC/PI double staining by flow cytometry; type: functional
A549 [26] = experiment: Induction of apoptosis in human A549 cells assessed as late apoptotic mitochondrial membrane depolarized cells at 4 uM after 24 hrs followed by irradiated with light dose 0.18 J/cm2 using JC-1 staining by flow cytometry; type: functional
A549 [27] = experiment: Induction of apoptosis in human A549 cells assessed as apoptotic cells at 4 uM after 24 hrs using annexin-V FITC/PI double staining by flow cytometry; type: functional
A549 [28] = experiment: Cell cycle arrest in human A549 cells assessed as accumulation at G2/M phase at 4 uM after 24 hrs followed by irradiated with light dose 0.18 J/cm2 by flow cytometry; type: functional
A549 [29] = experiment: Induction of apoptosis in human A549 cells transfected with lentivirus p53-siRNA assessed as reduction of p53 mRNA level at 4 uM after 24 hrs followed by irradiated with light dose 0.18 J/cm2 by MTT assay; type: functional; design: scale not given: the % may be the effect or the level left
A549 [30] = experiment: Induction of apoptosis in human A549 cells assessed as dying mitochondrial membrane depolarized cells at 4 uM after 24 hrs followed by irradiated with light dose 0.18 J/cm2 using JC-1 staining by flow cytometry; type: functional

C=Cc1c(C)c2cc3nc(c4c5[nH]c(cc6nc(cc1[nH]2)C(C)=C6CC)c(C)c5C(=O)N(C1CCCCC1)C4=O)[C@@H](CCC(=O)O)[C@@H]3C
Activity (A549 [1]): inactive | Activity (A549 [2]): 0.01% | viability at 4 µM (A549 [3]): 9.32% | Activity (A549 [4]): Active | Activity (SW480): Active | Activity (A549 [5]): 53.48% | Activity (A549 [6]): Active | Activity (A549 [7]): Active | Activity (A549 [8]): Active | Activity (A549 [9]): Active | viability at 4 µM (A549 [10]): 24.5% | Activity (A549 [11]): Active | Activity (A549 [12]): 27.71% | Activity (A549 [13]): 3.03% | Activity (A549 [14]): 0.41% | viability at 4 µM (A549 [15]): 72.1% | Activity (A549 [16]): 35.44% | Activity (A549 [17]): 0.01% | Drug uptake [18]: Active | viability at 4 µM (A549 [19]): 44.9% | Drug uptake [20]: Active | Activity (A549 [21]): Active | Activity (A549 [22]): Active | viability at 4 µM (HL-60 [23]): 78.6% | Activity (HL-60 [24]): Active | Activity (A549 [25]): 0.24% | Activity (A549 [26]): 91.08% | Activity (A549 [27]): 0.99% | Activity (A549 [28]): 56.07% | Activity (A549 [29]): 60% | Activity (A549 [30]): 8.28%
